Laboratory results from patent US20060211573A1, “7-(Akenylamino)triazolopyrimidines, method for the production thereof and use thereof in controlling harmful fungi and substances containing said triazolopyrimidines” (priority 2003, published 2006).

System: Alternaria solani
Test: Activity against early blight of tomato caused by Alternaria solani (protective spray on tomato leaves)
Format: in vivo
Details: 250 ppm active compound, sprayed one day before infection, assessed after 5 days; untreated plants 100% infected
Method: The active compounds were prepared, separately or together, as a stock solution with 0.25% by weight of active compound in acetone or DMSO. 1% by weight of the emulsi-fier Uniperol® EL (wetting agent with an emulsifying and dispersing action based on ethoxylated alkylphenols) was added to this solution and appropriately diluted with water to the desired concentration. Leaves of pot plants of the variety “Grope Fleischtomate St. Pierre” were sprayed to runoff point with an aqueous suspension in the active compound concentration given below. On the following day, the leaves were infected with an aqueous suspension of spores of Alternaria solani in 2% Biomalz solution with a concentration of 0.17×10^6 spores/ml. The plants were subsequently placed in a chamber saturated with water vapor at temperatures between 20 and 22° C. After 5 days, leaf infection in the untreated but infected control plants had so extensively developed that the infection could be visually determined in %.

C=CC(C)Nc1c(-c2c(F)cc(F)cc2F)c(Cl)nc2ncnn12 (stereo not shown) [I-1, 5-chloro-6-(2,4,6-trifluorophenyl)-7-(1-methyl-2-propen-1-yl)amino[1,2,4]triazolo[1,5-a]pyrimidine]
leaf infection, visually determined in %: no infection
